Values of other authors as cited in PubChem BioAssay AID1259410 (Chemical Carcinogenesis Research Information System (CCRIS), 2018).

System: rodent tumor promotion studies, tumor incidence
Experiment: CCRIS tumor promotion studies

Compound	outcome (Carcinogen: 7,12-Dimethylbenz[a]anthracene, 57-97-6, Doses [Carcinogen]: 20 nmole as a single topical application, Doses [Promoter]: 0, 40 mg/ml on skin for 51 wk (study duration: 51 wk), Route [Carcinogen]: Dermal, Route [Promoter]: Dermal, Species: Mouse, Strain/Sex: Sencar/Female (20/group))	outcome (Carcinogen: N-ETHYL-N-HYDROXYETHYLNITROSAMINE, 13147-25-6, Doses [Carcinogen]: 500 PPM IN DRINKING WATER FOR 2 WK, Doses [Promoter]: 0, 500 PPM IN DRINKING WATER BEGINNING POST CARCINOGEN TREATMENT AND CONTINUING FOR 24 WK (STUDY DURATION: 26 WK), Route [Carcinogen]: ORAL, Route [Promoter]: ORAL, Species: RAT, Strain/Sex: F344/MALE)	outcome (Carcinogen: N-Ethyl-N-hydroxyethylnitrosamine, 13147-25-6, Doses [Carcinogen]: 0.05% in drinking water for 2 wk, Doses [Promoter]: 0, 500 ppm in drinking water beginning post carcinogen treatment and continuing for 30 wk (study duration: 32 wk), Route [Carcinogen]: Oral, Route [Promoter]: Oral, Species: Rat, Strain/Sex: F344/Female (15/group))	outcome (Carcinogen: N-Ethyl-N-hydroxyethylnitrosamine, 13147-25-6, Doses [Carcinogen]: 500 ppm in drinking water for 2 wk, Doses [Promoter]: 0, 15, 30, 60, 125, 250, 500 ppm in drinking water beginning post carcinogen treatment and continuing for 24 wk (study d, Doses [Promoter]: 0, 15, 30, 60, 125, 250, 500 ppm in drinking water beginning post carcinogen treatment and continuing for 24 wk (study d, Route [Carcinogen]: Oral, Route [Promoter]: Oral, Species: Rat, Strain/Sex: F344/Male (15/group))	outcome (Carcinogen: 7,12-DIMETHYLBENZ(A)ANTHRACENE, Doses [Carcinogen]: TOP, Route [Carcinogen]: DERMAL, Route [Promoter]: DERMAL, Species: MOUSE, Strain/Sex: MALE,FEMALE)	outcome (Carcinogen: N-ETHYL-N-HYDROXYETHYLNITROSAMINE, 13147-25-6, Doses [Carcinogen]: 500 PPM IN DRINKING WATER FOR 2 WK, Doses [Promoter]: 0, 150 MG/KG/D IN CORN OIL 5 D/WK FOR 30 WK BEGINNING POST CARCINOGEN TREATMENT (STUDY DURATION: 32 WK), Route [Carcinogen]: ORAL, Route [Promoter]: GAVAGE, Species: RAT, Strain/Sex: F344/MALE)	outcome (Carcinogen: URETHANE, Doses [Carcinogen]: TOP, Route [Carcinogen]: DERMAL, Route [Promoter]: DERMAL, Species: MOUSE, Strain/Sex: MALE,FEMALE)
[O-][Br+2]([O-])O	skin: negative as both a complete carcinogen and as a promoter	kidney: tumors	kidney: renal cell tumors	kidney: renal cell tumors	–	–	–
C=C(C)[C@H]1CC=C(C)CC1	–	–	–	–	integumentary system (skin)	kidney: adenoma	integumentary system (skin)
